Test results taken from patent US20160046618A1, “Cyclopropyl Fused Thiazin-2-Amine Compounds as Beta-Secretase Inhibitors and Methods of Use” (AMGEN INC., priority 2014, published 2016).

Assays:
human recombinant BACE2 = human recombinant BACE2 (Homo sapiens (Human), UniProt Q9Y5Z0); assay: In vitro enzymatic BACE2 FRET assay; assay type: biochemical; settings: read-out: IC50 IP (μM) BACE2 enzyme
In short: (§1)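 Tris addition raises the pH to neutral to stop the reaction before fluorescence is measured at 590 nm emission with 488 nm excitation.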

human recombinant BACE1 = human recombinant BACE1 (Homo sapiens (Human), UniProt P56817); assay: In vitro enzymatic BACE1 FRET assay; assay type: biochemical; settings: read-out: IC50 IP (μM) BACE1 enzyme
human recombinant BACE1, sequence (P56817 46-501): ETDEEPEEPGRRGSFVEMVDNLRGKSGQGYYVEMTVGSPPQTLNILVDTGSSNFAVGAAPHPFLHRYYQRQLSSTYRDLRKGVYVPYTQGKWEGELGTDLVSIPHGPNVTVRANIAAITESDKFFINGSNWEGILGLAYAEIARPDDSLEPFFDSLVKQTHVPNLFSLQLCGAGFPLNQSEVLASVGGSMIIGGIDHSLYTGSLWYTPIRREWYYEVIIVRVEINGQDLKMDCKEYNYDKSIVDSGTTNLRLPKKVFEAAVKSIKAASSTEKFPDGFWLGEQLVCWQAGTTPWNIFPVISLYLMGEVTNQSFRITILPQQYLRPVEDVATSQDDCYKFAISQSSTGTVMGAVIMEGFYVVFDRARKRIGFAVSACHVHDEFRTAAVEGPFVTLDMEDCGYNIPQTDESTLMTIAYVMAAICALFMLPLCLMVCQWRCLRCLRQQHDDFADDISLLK
In short: as §1

Recombinant Cat D = Recombinant Cat D (Homo sapiens (Human), UniProt P07339); assay: In vitro enzymatic Cathepsin D (Cat D) FRET assay; assay type: biochemical; settings: read-out: IC50 IP (μM) CatD
Recombinant Cat D, sequence (P07339 65-412): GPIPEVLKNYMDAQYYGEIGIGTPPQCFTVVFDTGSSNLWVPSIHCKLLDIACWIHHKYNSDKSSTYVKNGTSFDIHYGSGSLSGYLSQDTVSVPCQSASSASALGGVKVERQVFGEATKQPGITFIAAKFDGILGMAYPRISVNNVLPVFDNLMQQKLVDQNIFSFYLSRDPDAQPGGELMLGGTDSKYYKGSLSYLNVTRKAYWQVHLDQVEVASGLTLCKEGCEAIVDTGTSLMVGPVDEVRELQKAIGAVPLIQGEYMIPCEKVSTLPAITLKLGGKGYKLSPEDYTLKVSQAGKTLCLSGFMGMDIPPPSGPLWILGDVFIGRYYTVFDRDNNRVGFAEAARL
In short: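 CHO-expressed enzyme; buffer 0.05 M citrate pH 3.5, 5 mM CHAPS, 10% DMSO final. Start with FRET substrate 20 nM, 1 h incubation, Tris stop (pH to neutral), fluorescence ex 500 nm/em 580 nm.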

[1] = system: Aβ40 in conditioned medium of cells stably expressing Amyloid Precursor Protein (APP); assay: In vitro BACE-1 cell-based assay (Aβ40 sandwich ELISA); settings: read-out: IC50 IP (μM) BACE1 cell
In short: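 Read-out: time-resolved fluorescence (Streptavidin-Europium) of Aβ40 captured by pAb40 and detected with biotinylated 6E10 from supernatants of APP-stable cells. Cells were exposed to compound for 24 h, 10-point dose response, top dose 100 μM or 10 μM, 0.1% DMSO. IC50 fitted to percent of control.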

human recombinant BACE2, sequence (Q9Y5Z0 63-518): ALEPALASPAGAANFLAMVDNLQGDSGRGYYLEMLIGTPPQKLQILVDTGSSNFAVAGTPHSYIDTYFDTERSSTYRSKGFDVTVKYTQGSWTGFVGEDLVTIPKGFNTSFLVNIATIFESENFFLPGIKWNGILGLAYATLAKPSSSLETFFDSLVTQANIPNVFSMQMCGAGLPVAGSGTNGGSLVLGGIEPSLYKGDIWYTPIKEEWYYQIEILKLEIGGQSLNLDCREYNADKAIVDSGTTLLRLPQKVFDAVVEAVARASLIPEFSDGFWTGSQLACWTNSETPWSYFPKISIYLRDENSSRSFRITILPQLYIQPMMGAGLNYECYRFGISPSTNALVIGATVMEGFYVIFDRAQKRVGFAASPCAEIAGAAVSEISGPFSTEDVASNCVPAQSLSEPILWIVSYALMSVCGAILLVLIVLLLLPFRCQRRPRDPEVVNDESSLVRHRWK

Row | IC50 (human recombinant BACE2) [µM] | IC50 (human recombinant BACE1) [µM] | IC50 (Recombinant Cat D) [µM] | IC50 [1] [µM] | SMILES
1 | 0.00253 | 0.000863 | 121 | 0.000338 | CN(C)C(=O)[C@]12C[C@H]1[C@@](C)(c1cc(Nc3ncnc4cc(OCc5ncco5)cnc34)cc(F)c1F)N=C(N)S2 [Example 923, (1S,5S,6S)-3-amino-5-(2,3-difluoro-5-((7-(1,3-oxazol-2-ylmethoxy)pyrido[3,2-d]pyrimidin-4-yl)amino)phenyl)-N,N,5-trimethyl-2-thia-4-azabicyclo[4.1.0]hept-3-ene-1-carboxamide]
2 | 0.00387 | 0.0014 | > 400 | 0.00308 | C#C[C@H](C)Oc1cnc2c(Nc3cc(F)c(F)c([C@@]4(C)N=C(N)S[C@@]5(C(=O)N(C)C)C[C@H]54)c3)nccc2n1 [Example 925, (1S,5S,6S)-3-amino-5-(2,3-difluoro-5-((2-(((1S)-1-methyl-2-propyn-1-yl)oxy)pyrido[3,4-b]pyrazin-5-yl)amino)phenyl)-N,N,5-trimethyl-2-thia-4-azabicyclo[4.1.0]hept-3-ene-1-carboxamide]
3 | 0.00491 | 0.0021 | 695 | 0.00113 | CN(C)C(=O)[C@]12C[C@H]1[C@@](C)(c1cc(NC(=O)c3cnc(OCC(F)(F)F)cn3)cc(F)c1F)N=C(N)S2 [Example 926, (1S,5S,6S)-3-amino-5-(2,3-difluoro-5-(((5-(2,2,2-trifluoroethoxy)-2-pyrazinyl)carbonyl)amino)phenyl)-N,N,5-trimethyl-2-thia-4-azabicyclo[4.1.0]hept-3-ene-1-carboxamide]
4 | 0.00448 | 0.000266 | 126 | 0.000667 | C#CCOc1cnc(C(=O)Nc2ccc(F)c([C@@]3(C)N=C(N)S[C@@]4(C#N)C[C@H]43)c2)cn1 [Example 927, N-(3-((1S,5S,6S)-3-amino-1-cyano-5-methyl-2-thia-4-azabicyclo[4.1.0]hept-3-en-5-yl)-4-fluorophenyl)-5-(2-propyn-1-yloxy)-2-pyrazinecarboxamide]
5 | 0.0129 | 0.00141 | 439 | 0.00723 | C#CCOc1cnc2c(Nc3ccc(F)c([C@@]4(C)N=C(N)S[C@@]5(C#N)C[C@H]54)c3)ncnc2c1 [Example 928, (1S,5S,6S)-3-amino-5-(2-fluoro-5-((7-(2-propyn-1-yloxy)pyrido[3,2-d]pyrimidin-4-yl)amino)phenyl)-5-methyl-2-thia-4-azabicyclo[4.1.0]hept-3-ene-1-carbonitrile]
6 | < 0.00203 | 0.000567 | > 400 | 0.00363 | C[C@]1(c2cc(NC(=O)c3ccc(Cl)cn3)ccc2F)N=C(N)S[C@@]2(C#N)C[C@H]21 [Example 929, N-(3-((1S,5S,6S)-3-amino-1-cyano-5-methyl-2-thia-4-azabicyclo[4.1.0]hept-3-en-5-yl)-4-fluorophenyl)-5-chloro 2-pyridinecarboxamide]
7 | 0.00491 | 0.000526 | 315 | 0.000709 | C#CCOc1cnc2c(Nc3cc(F)c(F)c([C@@]4(C)N=C(N)S[C@@]5(C(=O)N6CCCC6)C[C@H]54)c3)ncnc2c1 [Example 933, N-(3-((1S,5S,6S)-3-amino-5-methyl-1-(1-pyrrolidinylcarbonyl)-2-thia-4-azabicyclo[4.1.0]hept-3-en-5-yl)-4,5-difluorophenyl)-7-(2-propyn-1-yloxy)pyrido[3,2-d]pyrimidin-4-amine]
8 | < 0.00203 | 0.000393 | 12.9 | 0.000378 | C#CCOc1cnc(C(=O)Nc2cc(F)c(F)c([C@@]3(C)N=C(N)S[C@@]4(C(=O)N5CCCC5)C[C@H]43)c2)cn1 [Example 934, N-(3-((1S,5S,6S)-3-amino-5-methyl-1-(1-pyrrolidinylcarbonyl)-2-thia-4-azabicyclo[4.1.0]hept-3-en-5-yl)-4,5-difluorophenyl)-5-(2-propyn-1-yloxy)-2-pyrazinecarboxamide]
9 | < 0.00203 | 0.000498 | 254 | 0.000889 | C[C@]1(c2cc(NC(=O)c3ccc(Cl)cn3)cc(F)c2F)N=C(N)S[C@@]2(C(=O)N3CCCC3)C[C@H]21 [Example 935, N-(3-((1S,5S,6S)-3-amino-5-methyl-1-(1-pyrrolidinylcarbonyl)-2-thia-4-azabicyclo[4.1.0]hept-3-en-5-yl)-4,5-difluorophenyl)-5-chloro-2-pyridinecarboxamide]
10 | 0.0182 | 0.00385 | 115 | 0.000847 | C[C@]1(c2cc(Nc3ncnc4cc(OCc5ncco5)cnc34)cc(F)c2F)N=C(N)S[C@@]2(C(=O)N3CCCC3)C[C@H]21 [Example 936, N-(3-((1S,5S,6S)-3-amino-5-methyl-1-(1-pyrrolidinylcarbonyl)-2-thia-4-azabicyclo[4.1.0]hept-3-en-5-yl)-4,5-difluorophenyl)-7-(1,3-oxazol-2-ylmethoxy)pyrido[3,2-d]pyrimidin-4-amine]
11 | 0.0102 | 0.00207 | 872 | 0.00624 | C#C[C@H](C)Oc1cnc2c(Nc3cc(F)c(F)c([C@@]4(C)N=C(N)S[C@@]5(C(=O)N6CCCC6)C[C@H]54)c3)nccc2n1 [Example 937, N-(3-((1S,5S,6S)-3-amino-5-methyl-1-(1-pyrrolidinylcarbonyl)-2-thia-4-azabicyclo[4.1.0]hept-3-en-5-yl)-4,5-difluorophenyl)-2-(((1S)-1-methyl-2-propyn-1-yl)oxy)pyrido[3,4-b]pyrazin-5-amine]
12 | 0.0633 | 0.00129 | 162 | 0.00508 | C[C@H](Oc1cnc2c(Nc3cc(F)c(F)c([C@@]4(C)N=C(N)S[C@@]5(C(=O)N6CCCC6)C[C@H]54)c3)nccc2n1)c1ncco1 [Example 938, N-(3-((1S,5S,6S)-3-amino-5-methyl-1-(1-pyrrolidinylcarbonyl)-2-thia-4-azabicyclo[4.1.0]hept-3-en-5-yl)-4,5-difluorophenyl)-2-((1S)-1-(1,3-oxazol-2-yl)ethoxy)pyrido[3,4-b]pyrazin-5-amine]
13 | 0.127 | 0.000867 | 209 | 0.165 | C[C@H](Oc1cnc2c(Nc3cc(F)c(F)c([C@@]4(C)N=C(N)S[C@@]5(C#N)C[C@H]54)c3)nccc2n1)c1ncco1 [Example 939, (1S,5S,6S)-3-amino-5-(2,3-difluoro-5-((2-((1S)-1-(1,3-oxazol-2-yl)ethoxy)pyrido[3,4-b]pyrazin-5-yl)amino)phenyl)-5-methyl-2-thia-4-azabicyclo[4.1.0]hept-3-ene-1-carbonitrile]
14 | 0.0224 | 0.004 | 1390 | 0.015 | C[C@]1(c2cc(NC(=O)c3cnc(OCC(F)(F)F)cn3)cc(F)c2F)N=C(N)S[C@@]2(C#N)C[C@H]21 [Example 940, N-(3-((1S,5S,6S)-3-amino-1-cyano-5-methyl-2-thia-4-azabicyclo[4.1.0]hept-3-en-5-yl)-4,5-difluorophenyl)-5-(2,2,2-trifluoroethoxy)-2-pyrazinecarboxamide]
15 | 0.0417 | 0.00314 | 1090 | 0.00518 | C#CCOc1cnc2c(Nc3ccc(F)c([C@@]4(CF)N=C(N)S[C@@]5(COC)C[C@H]54)c3)ncnc2c1 [Example 942, N-(3-((1S,5S,6S)-3-amino-5-(fluoromethyl)-1-(methoxymethyl)-2-thia-4-azabicyclo[4.1.0]hept-3-en-5-yl)-4-fluorophenyl)-7-(2-propyn-1-yloxy)pyrido[3,2-d]pyrimidin-4-amine]
16 | 0.101 | 0.00223 | 571 | 0.00593 | C#CCOc1cnc2c(Nc3cc(F)c(F)c([C@@]4(C)N=C(N)S[C@@]5(COC)C[C@H]54)c3)ncnc2c1 [Example 943, N-(3-((1S,5S,6S)-3-amino-1-(methoxymethyl)-5-methyl-2-thia-4-azabicyclo[4.1.0]hept-3-en-5-yl)-4,5-difluorophenyl)-7-(2-propyn-1-yloxy)pyrido[3,2-d]pyrimidin-4-amine]
17 | 0.0696 | 0.00102 | > 400 | 0.00216 | C#CCOc1cnc2c(Nc3cnc(F)c([C@@]4(C)N=C(N)S[C@@]5(CF)C[C@H]54)c3)ncnc2c1 [Example 944, N-(5-((1S,5S,6S)-3-amino-1-(fluoromethyl)-5-methyl-2-thia-4-azabicyclo[4.1.0]hept-3-en-5-yl)-6-fluoro-3-pyridinyl)-7-(2-propyn-1-yloxy)pyrido[3,2-d]pyrimidin-4-amine]
18 | 0.517 | 0.0268 | 352 | 0.0174 | COCCOc1cnc2c(Nc3cc(F)c(F)c([C@@]4(C)N=C(N)S[C@@]5(COC)C[C@H]54)c3)ncnc2c1 [Example 946, N-(3-((1S,5S,6S)-3-amino-1-(methoxymethyl)-5-methyl-2-thia-4-azabicyclo[4.1.0]hept-3-en-5-yl)-4,5-difluorophenyl)-7-(2-methoxyethoxy)pyrido[3,2-d]pyrimidin-4-amine]
